What was measured:
AKT [1] = experiment: AKT signaling immunoblot / phospho-array, HUVECs; assay type: cell-based, human
Method: (§1) Cellular reagents were purchased from various commercial vendors. Primary human umbilical vein endothelial cells (HUVECs) were obtained from Cell Applications Inc. and cultured according to the manufacture's recommendations. Primary human coronary artery smooth muscle cells were obtained from Invitrogen and were cultured according to the manufacture's recommendations. 293T cells were obtained from ATCC and were cultured according to the manufacture's recommendations. Mouse primary smooth muscle cells were obtained and cultured as described previously. Predesigned Silencer Select siRNA constructs targeting Pearl 1 and negative control siRNA were obtained from ThermoFisher. Transfections were performed using RNAiMAX or Lipofectamine 3000 transfection reagents according to the manufacturer's protocols. Cells were used for signaling assays 48 hours after transfection; efficient Pearl 1 knockdown or Pearl 1 overexpression was confirmed by immunoblot assays.
Prior to performing signaling assays, cells were trypsinized, centrifuged, suspended in basal media, and counted using an automated hemocytometer. Cells were further diluted in basal media to an assay-dependent concentration. Cells were then incubated with gentle agitation for 60 minutes to prevent cell attachment and reduce basal signaling. PP1, Dynasore, MK-2206, and Rapamycin were diluted in DMSO and used in assay concentrations of 10 μM, 100 μM, 10 μM, and respectively, for the final 20-30 minutes of incubation in basal media. An equal volume of DMSO was used as the negative control condition. […] 1 μg Pearl 1 polyclonal antibody was added as a specific positive control. 20% growth media or 2% fetal bovine serum, labeled “Serum” in figures, was added as a non-specific positive control. The cells were centrifuged at 300G for 3 minutes with the exception of platelets, which were centrifuged at 500G for 5 minutes. The cells were then incubated at 37° C. for 8-45 minutes, depending on the cell type and pathway of interest. The cells were lysed in radioimmunoprecipitation buffer (RIPA) containing a cocktail of protease and phosphatase inhibitors and universal nuclease. Immunoblots were performed by standard techniques, as briefly follows. Protein content was determined using a bicinchoninic acid assay with BSA standards (#23225, Pierce BCA Protein Assay Kit). Cell lysates were then reduced with dithiothreitol (DTT) in lithium dodecyl sulfate (LDS) sample buffer (#NP0007, Invitrogen). Equal protein amounts were added to polyacrylamide gels (#4561086, BioRad) and electrophoresed prior to transferring to a nitrocellulose or polyvinylidene fluoride membrane (#1620260, BioRad). Membranes were blocked in 5% BSA/Tris-buffered saline (TBS) with 0.1% Tween 20 for 30 minutes. […]

AKT [2] = experiment: AKT signaling immunoblot, 293T cells; assay type: cell-based
Method: as §1
Prior to performing signaling assays, cells were trypsinized, centrifuged, suspended in basal media, and counted using an automated hemocytometer. Cells were further diluted in basal media to an assay-dependent concentration. […] Protein content was determined using a bicinchoninic acid assay with BSA standards (#23225, Pierce BCA Protein Assay Kit). […]

mTOR = mTOR signaling, phospho-array and immunoblot, HUVECs; assay type: cell-based, human
Method: Prior to performing signaling assays, cells were trypsinized, centrifuged, suspended in basal media, and counted using an automated hemocytometer. Cells were further diluted in basal media to an assay-dependent concentration. Cells were then incubated with gentle agitation for 60 minutes to prevent cell attachment and reduce basal signaling. PP1, Dynasore, MK-2206, and Rapamycin were diluted in DMSO and used in assay concentrations of 10 μM, 100 μM, 10 μM, and respectively, for the final 20-30 minutes of incubation in basal media. An equal volume of DMSO was used as the negative control condition. […] 1 μg Pearl 1 polyclonal antibody was added as a specific positive control. 20% growth media or 2% fetal bovine serum, labeled “Serum” in figures, was added as a non-specific positive control. The cells were centrifuged at 300G for 3 minutes with the exception of platelets, which were centrifuged at 500G for 5 minutes. The cells were then incubated at 37° C. for 8-45 minutes, depending on the cell type and pathway of interest. The cells were lysed in radioimmunoprecipitation buffer (RIPA) containing a cocktail of protease and phosphatase inhibitors and universal nuclease. Immunoblots were performed by standard techniques, as briefly follows. Protein content was determined using a bicinchoninic acid assay with BSA standards (#23225, Pierce BCA Protein Assay Kit). Cell lysates were then reduced with dithiothreitol (DTT) in lithium dodecyl sulfate (LDS) sample buffer (#NP0007, Invitrogen). Equal protein amounts were added to polyacrylamide gels (#4561086, BioRad) and electrophoresed prior to transferring to a nitrocellulose or polyvinylidene fluoride membrane (#1620260, BioRad). Membranes were blocked in 5% BSA/Tris-buffered saline (TBS) with 0.1% Tween 20 for 30 minutes. The indicated primary antibodies were incubated with the pre-blocked membranes overnight at 4° C. Membranes were washed with TBS with 0.1% Tween 20, probed with fluorescent secondary antibodies, and imaged. β-actin or β-tubulin served as a loading control. […]

platelets [3] = system: platelets
Method: (§2) Complete blood counts (CBC) and washed platelet counts were determined using a hematology analyzer Element HT5 (Heska, Loveland). […] For flow cytometry, diluted whole blood or isolated platelets were pre-incubated with their respective fluorescent antibodies for 15 minutes and fixed. For murine whole blood: CD41-VioBlue, CD61-PE (Mitlenyi Biotec, Bergisch Gladbach, Germany), CD42b-DL649, GPVI-FITC (Emfret, Eibelstadt, Germany) and for human whole blood and isolated platelets: CD41-FITC, CD61-APC, CD42b-PE (Biolegend, San Diego), GPVI-BV421 617 (BD, Franklin Lakes). Platelet surface receptor levels were quantified by flow cytometry on a 618 CytoFlex analyzer.

platelets [4] = system: platelets; remark: listed apart in the source
Method: as §2
Samples were immediately fixed and run using a CytoFlex analyzer (Beckman Coulter, Pasadena) and analysis was performed with Kaluza software (Beckman Coulter, Pasadena).

VSMCs = experiment: VSMC adhesion assay; assay type: cell-based, mouse; conditions: immobilized protein
Description: Plates were ultraviolet (UV) sterilized before adding cells. […] Efficient Itgα9 knockdown was confirmed by qPCR.

Notch = conditions: 4 hours on SVEP1 vs BSA
Method: Cells were collected, resuspended in SFM, and incubated for 1 hr with gentle agitation before seeding on tissue culture wells that were precoated and blocked, as described in previous sections. Cells were collected for analysis after 4 hr of growth on the indicated substrate. Svep1SMC+/+ and Svep1SMCΔ/Δ VSMCs were collected for analysis after 72 hr of incubation in SFM to obtain basal Notch signaling.

Integrin signaling = Integrin signaling western blot, THP-1 cells; assay type: cell-based, human
Method: Cells were resuspended in serum-free media (SFM) and incubated with gentle agitation to prevent cell attachment and reduce basal signaling. […] Cells were briefly centrifuged to the bottom of the wells and incubated for 8 min (for VSMCs) or 15 min (for THP-1 cells) before lysis with cell lysis buffer (#9803, Cell Signaling Technologies) containing a cocktail of protease and phosphatase inhibitors. Western blots were performed by standard techniques, as briefly follows. Protein content was determined using a bicinchoninic acid assay with BSA standards (#23225, Pierce™ BCA Protein Assay Kit). Cell lysates were then reduced with DTT in lithium dodecyl sulfate sample buffer (#NP0007, Invitrogen). Equal protein amounts were added to polyacrylamide gels (#4561086, BioRad) and electrophoresed prior to transferring to a nitrocellulose or polyvinylidene fluoride membrane (#1620260, BioRad). Membranes were blocked in 5% BSA/Tris-Buffered Saline with tween 20 for 30 min. The indicated primary antibodies were incubated with the pre-blocked membranes for overnight at 4° C. Membranes were washed with Tris-Buffered Saline with tween 20, probed with fluorescent secondary antibodies, and imaged. β-actin or β-tubulin served as a loading control.

Human platelets = conditions: static conditions, with and without 0.1 U/mL thrombin
Method: Subsequently, coverslips were blocked with 1% BSA and washed with PBS. Human platelets were isolated from whole blood and re-suspended in Tyrode's buffer. 2×10^7/mL basal or thrombin activated platelets were added to coverslips and incubated at 37° C. for 10, 20, or 30 minutes. After incubation, non-adherent platelets were removed and the coverslips were washed with PBS, fixed with 1.5% paraformaldehyde, permeabilized with 0.01% Triton-X and stained with TRITC phalloidin. Platelets were visualized using fluorescent microscopy. Images of the adhered platelets were captured using fluorescent microscopy and counted manually by a blinded observer.

Fibronectin = Fibronectin (Mus musculus, UniProt P11276); conditions: enriched VSMC media
Fibronectin, sequence (P11276 33-2477): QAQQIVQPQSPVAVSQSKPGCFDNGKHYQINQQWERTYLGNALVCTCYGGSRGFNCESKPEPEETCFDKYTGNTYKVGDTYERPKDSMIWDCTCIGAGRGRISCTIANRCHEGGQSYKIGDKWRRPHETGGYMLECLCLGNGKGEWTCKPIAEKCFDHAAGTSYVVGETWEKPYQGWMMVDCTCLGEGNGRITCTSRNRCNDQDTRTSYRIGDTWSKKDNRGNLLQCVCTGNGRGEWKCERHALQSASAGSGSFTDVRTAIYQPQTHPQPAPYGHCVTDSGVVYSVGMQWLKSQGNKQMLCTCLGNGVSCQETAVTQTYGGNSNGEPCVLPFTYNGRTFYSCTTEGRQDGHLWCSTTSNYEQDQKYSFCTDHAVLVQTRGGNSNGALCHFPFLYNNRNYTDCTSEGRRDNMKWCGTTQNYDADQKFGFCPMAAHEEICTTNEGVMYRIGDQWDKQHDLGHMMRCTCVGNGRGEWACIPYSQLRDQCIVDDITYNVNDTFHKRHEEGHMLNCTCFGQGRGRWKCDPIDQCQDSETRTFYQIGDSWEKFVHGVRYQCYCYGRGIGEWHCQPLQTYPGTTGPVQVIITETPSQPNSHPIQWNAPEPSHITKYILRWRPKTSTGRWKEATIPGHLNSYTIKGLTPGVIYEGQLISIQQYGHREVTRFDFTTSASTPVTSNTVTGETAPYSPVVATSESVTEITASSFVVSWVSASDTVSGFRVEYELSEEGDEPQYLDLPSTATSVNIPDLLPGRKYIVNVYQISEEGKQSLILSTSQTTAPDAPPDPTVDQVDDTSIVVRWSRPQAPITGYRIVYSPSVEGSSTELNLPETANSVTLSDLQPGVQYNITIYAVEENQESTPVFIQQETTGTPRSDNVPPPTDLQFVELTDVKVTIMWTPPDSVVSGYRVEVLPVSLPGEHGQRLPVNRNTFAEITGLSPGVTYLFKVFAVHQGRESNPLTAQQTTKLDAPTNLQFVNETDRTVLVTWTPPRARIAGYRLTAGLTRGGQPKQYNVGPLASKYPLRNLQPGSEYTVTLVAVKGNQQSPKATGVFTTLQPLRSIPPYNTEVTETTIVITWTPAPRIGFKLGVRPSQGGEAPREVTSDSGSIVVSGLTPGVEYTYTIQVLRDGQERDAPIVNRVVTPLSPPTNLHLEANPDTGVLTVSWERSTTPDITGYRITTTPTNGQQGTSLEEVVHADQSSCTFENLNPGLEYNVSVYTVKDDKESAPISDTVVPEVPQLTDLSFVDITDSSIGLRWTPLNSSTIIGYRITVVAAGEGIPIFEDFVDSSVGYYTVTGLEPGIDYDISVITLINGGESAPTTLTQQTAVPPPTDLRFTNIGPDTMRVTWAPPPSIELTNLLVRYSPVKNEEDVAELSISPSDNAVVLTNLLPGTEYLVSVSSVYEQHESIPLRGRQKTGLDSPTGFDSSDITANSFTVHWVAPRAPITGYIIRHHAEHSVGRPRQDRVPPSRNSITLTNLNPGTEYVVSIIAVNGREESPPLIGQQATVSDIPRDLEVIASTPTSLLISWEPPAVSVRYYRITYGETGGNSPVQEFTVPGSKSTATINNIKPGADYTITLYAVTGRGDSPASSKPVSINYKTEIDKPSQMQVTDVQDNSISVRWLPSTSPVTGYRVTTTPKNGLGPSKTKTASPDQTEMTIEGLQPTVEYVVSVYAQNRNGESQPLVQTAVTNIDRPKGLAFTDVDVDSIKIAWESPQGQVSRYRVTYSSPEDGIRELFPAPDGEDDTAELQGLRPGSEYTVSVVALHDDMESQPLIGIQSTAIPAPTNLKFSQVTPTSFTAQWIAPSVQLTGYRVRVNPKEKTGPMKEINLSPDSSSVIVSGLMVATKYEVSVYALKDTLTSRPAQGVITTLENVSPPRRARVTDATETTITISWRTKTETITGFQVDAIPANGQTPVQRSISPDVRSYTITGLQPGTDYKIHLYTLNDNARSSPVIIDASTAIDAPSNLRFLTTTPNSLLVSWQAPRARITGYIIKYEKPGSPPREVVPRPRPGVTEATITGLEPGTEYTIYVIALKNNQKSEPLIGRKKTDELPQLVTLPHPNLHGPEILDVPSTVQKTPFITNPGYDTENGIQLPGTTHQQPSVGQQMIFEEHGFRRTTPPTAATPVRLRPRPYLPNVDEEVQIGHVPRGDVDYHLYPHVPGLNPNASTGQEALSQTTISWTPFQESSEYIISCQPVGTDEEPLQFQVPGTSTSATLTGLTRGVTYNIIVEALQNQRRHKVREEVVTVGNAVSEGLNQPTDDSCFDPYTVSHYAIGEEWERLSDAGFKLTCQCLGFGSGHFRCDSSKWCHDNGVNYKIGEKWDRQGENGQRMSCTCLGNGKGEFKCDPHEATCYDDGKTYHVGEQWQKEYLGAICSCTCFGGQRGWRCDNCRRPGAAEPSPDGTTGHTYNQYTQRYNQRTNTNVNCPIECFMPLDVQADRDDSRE
Method: Affinity-based proteomics: Murine VSMCs were grown to confluence in serum-containing media and changed to serum-free media to generate enriched media. […] An aliquot was removed after incubation as the “input” fraction. Media was then added to a slurry of Pierce Anti-c-Myc Magnetic Beads+0.05% Tween 20 and incubated for 30 minutes while rocking at 4° C. The beads were then washed twice with Ca^2+ and Mg^2+-containing PBS (D8662, Sigma) +0.05% Tween 20 and twice with Ca^2+ and Mg^2+-containing PBS before a final resuspension in PBS. An aliquot of the beads was reserved as the pulldown fraction for validation. […] The samples were incubated for 4 hours prior to dialysis. Protease arrest (G-Biosciences) was added and excess biotin was dialyzed using a 10 kDa molecular weight cut-off (MWKO) Slide-A-Lyzer™ dialysis Cassette (ThermoFisher Scientific) in buffered saline+1 mM EDTA. The samples were then transferred to 10 kDa MWKO Vivasin column (Sartorius Stedim Biotech), centrifuged, resuspended in RIPA buffer, centrifuged, and added to pre-washed Pierce Streptavidin Magnetic Beads. The samples and beads were incubated for 1 hour at room temperature or overnight at 4° C. and then washed with the following solutions: RIPA buffer, 1M 732 KCl, 0.1M Na2CO3, 2M urea in 10 mM Tris HCl (pH=8.0), and PBS. The beads were then resuspended in PBS for peptide preparation.

AKT [5] = conditions: BSA, N-terminal, C-terminal and full-length SVEP1

pulldown of Fibronectin (Fibronectin): confirmed
Substance: SVEP1: recombinant murine SVEP1 extracellular matrix protein with Myc and poly-histidine tag, expressed in 293F cells
pAKT, AKT pathway phospho-array (AKT [1]; 10 or 30 minutes, SVEP1 relative to BSA): Elevated pAKT
AKT signaling (AKT [1]; relative to BSA controls): activated
pAKT levels (AKT [2]; 293T cells transfected with Pearl 1-expression plasmid (constitutive AKT activation)): no additional effect on pAKT levels
AKT activation (AKT [2]; 293T cells, which lack Pearl 1): Neither SVEP1 nor Pearl 1 pAb activated AKT
phosphorylated mTOR (Ser 2448) and p70S6K Thr 389, immunoblot (mTOR; 10 or 30 minutes): activation of mTOR signaling
AKT pathway phospho-proteins (mTOR; 10 minutes of exposure): Few changes
mTOR pathway phospho-proteins (p70S6K, RPS6, 4E-BP1) (mTOR; 30 minutes of exposure): elevated
platelet aggregation and agglutination (platelets [3]; platelets from mice compared to humans): notably milder
platelet aggregation (decrease in whole blood platelet count) (platelets [3]; soluble recombinant SVEP1, human whole blood): induced spontaneous platelet aggregation and agglutination
platelet receptor density (platelets [4]; freshly isolated human platelets, soluble SVEP1): lower levels of receptor CD42b and CD61
integrin aIIbβ3 activation (active CD41/61) (platelets [4]; isolated human platelets, basal and with ADP, TRAP6): increased
P-selectin expression (platelets [4]; isolated human platelets, with ADP, TRAP6): increased
adhesion of VSMCs (VSMCs): adhere to SVEP1 in a dose-dependent manner
expression of canonical Notch targets Hey2 and Hes 1 (Notch): significantly increased expression
integrin signaling (Integrin signaling): activated
adherence of platelets to coated coverslips (Human platelets): adhered
activation of AKT signaling (phospho-AKT) (AKT [5]): necessary to activate AKT signaling
